BindingDB's records for PubMed 21481795 (Tufts Medical Center)

Experiments:
[1] = target: Tyrosine-protein kinase Tec (Homo sapiens) (UniProt P42680); experiment: Inhibition of human wild type TEC using PolyEY as substrate preincubated for 2 hrs followed by ATP addition and measured every 2 mins for […] by spectrophotometric analysis
[2] = target: Serine/threonine-protein kinase OSR1 (OXSR1) (Homo sapiens) (UniProt O95747); experiment: Inhibition of human OSR1 preincubated for 2 hrs followed by ATP addition and measured every 2 mins for […] by spectrophotometric analysis
Sequence of Serine/threonine-protein kinase OSR1 (OXSR1) (Homo sapiens) (O95747 whole entry, looked up): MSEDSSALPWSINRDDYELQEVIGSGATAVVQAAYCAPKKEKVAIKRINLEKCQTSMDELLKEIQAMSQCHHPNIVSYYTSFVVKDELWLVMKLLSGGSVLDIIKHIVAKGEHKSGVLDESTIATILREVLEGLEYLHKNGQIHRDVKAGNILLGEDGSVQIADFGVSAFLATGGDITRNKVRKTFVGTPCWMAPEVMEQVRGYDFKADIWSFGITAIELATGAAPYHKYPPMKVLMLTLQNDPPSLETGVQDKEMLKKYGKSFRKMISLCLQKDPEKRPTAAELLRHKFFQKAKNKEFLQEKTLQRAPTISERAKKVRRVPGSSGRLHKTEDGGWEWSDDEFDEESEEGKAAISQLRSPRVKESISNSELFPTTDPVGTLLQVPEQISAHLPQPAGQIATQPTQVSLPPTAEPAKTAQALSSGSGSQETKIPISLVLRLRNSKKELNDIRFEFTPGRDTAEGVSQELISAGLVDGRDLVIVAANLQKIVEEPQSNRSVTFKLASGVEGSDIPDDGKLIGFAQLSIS

[3] = target: 3-phosphoinositide-dependent protein kinase 1 (PDPK1) (Homo sapiens) (UniProt O15530); experiment: Inhibition of human wild type PDK1 using bio-4xCHKT as substrate preincubated for 2 hrs followed by ATP addition and measured every 2 mins for […] by spectrophotometric analysis

Measured: IC50

Sequence of Tyrosine-protein kinase Tec (Homo sapiens) (P42680 whole entry, looked up): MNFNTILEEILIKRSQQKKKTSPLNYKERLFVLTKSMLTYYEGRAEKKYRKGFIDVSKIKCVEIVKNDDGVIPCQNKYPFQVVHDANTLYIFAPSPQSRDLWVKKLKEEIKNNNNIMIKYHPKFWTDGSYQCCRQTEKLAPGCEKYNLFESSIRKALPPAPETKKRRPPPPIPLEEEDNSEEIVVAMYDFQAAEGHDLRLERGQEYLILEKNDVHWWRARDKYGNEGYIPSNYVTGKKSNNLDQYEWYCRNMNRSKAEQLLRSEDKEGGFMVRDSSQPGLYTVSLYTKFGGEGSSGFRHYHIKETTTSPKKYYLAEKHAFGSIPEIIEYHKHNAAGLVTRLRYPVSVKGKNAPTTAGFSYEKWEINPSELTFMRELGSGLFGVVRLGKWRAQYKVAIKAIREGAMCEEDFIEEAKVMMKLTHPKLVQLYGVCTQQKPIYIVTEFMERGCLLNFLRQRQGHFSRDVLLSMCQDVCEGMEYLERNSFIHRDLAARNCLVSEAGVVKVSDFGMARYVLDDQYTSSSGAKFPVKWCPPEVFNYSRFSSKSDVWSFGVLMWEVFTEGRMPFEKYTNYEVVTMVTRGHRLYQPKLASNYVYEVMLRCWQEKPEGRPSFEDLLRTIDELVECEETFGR

CNC(=O)c1cc(Oc2ccc(NC(=O)Nc3cc(C(C)(C)C)nn3-c3ccc4ncccc4c3)c(F)c2)ccn1 [Rebastinib]
> 1000 nM: [1] | [2] | [3]
